Laboratory results taken from ChEMBL document CHEMBL3885881, “DrugMatrix”.

Species: Rattus norvegicus
Experiment: DrugMatrix - Regimen: Daily Repeat
Format: toxicity, organism-based, Sprague-Dawley
Parameters: regimen Daily Repeat, gender Male, age 6-8 weeks
Details: in vivo, po, route oral GAVAGE, vehicle 100 % WATER; for ABSOLUTE BASOPHIL / ABSOLUTE EOSINOPHIL / ABSOLUTE LYMPHOCYTE / ABSOLUTE MONOCYTE / ABSOLUTE SEGMENTED NEUTROPHIL / BASOPHIL / EOSINOPHIL / ERYTHROCYTE COUNT / HEMATOCRIT / HEMOGLOBIN / LEUKOCYTE COUNT / LYMPHOCYTE / MEAN CORPUSCULAR HEMOGLOBIN / MEAN CORPUSCULAR HEMOGLOBIN CONCENTRATION / MEAN CORPUSCULAR VOLUME / MONOCYTE / NEUTROPHIL / NUCLEATED RED BLOOD CELLS / PLATELET COUNT: tissue Blood; for ALANINE AMINOTRANSFERASE / ALBUMIN / ALKALINE PHOSPHATASE / ASPARTATE AMINOTRANSFERASE / BLOOD UREA NITROGEN / CARBON DIOXIDE / CHLORIDE / CHOLESTEROL / CREATINE PHOSPHOKINASE / CREATININE / GLUCOSE / LACTATE DEHYDROGENASE / LIPASE / PHOSPHORUS / POTASSIUM / SODIUM / TOTAL BILIRUBIN / TOTAL PROTEIN / URIC ACID: tissue Plasma
[1] = 0 mg/kg, 72 h, dose level Control, time 3 day
[2] = 0 mg/kg, 120 h, dose level Control, time 5 day
[3] = 6 mg/kg, 72 h, dose level Low, time 3 day

## CN1CCN(C(=O)OC2c3nccnc3C(=O)N2c2ccc(Cl)cn2)CC1 (centres undefined) [ZOPICLONE]
[1]
  ABSOLUTE BASOPHIL: 0 CELLS/uL
  ABSOLUTE EOSINOPHIL: 86.33 CELLS/uL
  ABSOLUTE LYMPHOCYTE: 12090.17 CELLS/uL
  ABSOLUTE MONOCYTE: 166.67 CELLS/uL
  ABSOLUTE SEGMENTED NEUTROPHIL: 1090.17 CELLS/uL
  BASOPHIL: 0%
  EOSINOPHIL: 0.67%
  ERYTHROCYTE COUNT: 5.57 x10E6/uL
  HEMATOCRIT: 35.33%
  HEMOGLOBIN: 13.83 G/DL
  LEUKOCYTE COUNT: 13.43 x10E3/uL
  LYMPHOCYTE: 89.83%
  MEAN CORPUSCULAR HEMOGLOBIN: 24.88 pg
  MEAN CORPUSCULAR HEMOGLOBIN CONCENTRATION: 39.15 G/DL
  MEAN CORPUSCULAR VOLUME: 63.52 fL
  MONOCYTE: 1.17%
  NEUTROPHIL: 8.33%
  NUCLEATED RED BLOOD CELLS: 0 /100WBC
  PLATELET COUNT: 1181.33 x10E3/uL
  ALANINE AMINOTRANSFERASE: 48.33 u/L
  ALBUMIN: 4.1 G/DL
  ALKALINE PHOSPHATASE: 395 u/L
  ASPARTATE AMINOTRANSFERASE: 81.83 u/L
  BLOOD UREA NITROGEN: 15.83 mg/dL
  CARBON DIOXIDE: 24.17 mmol/L
  CHLORIDE: 103.83 MEQ/L
  CHOLESTEROL: 63.67 mg/dL
  CREATINE PHOSPHOKINASE: 372.83 u/L
  CREATININE: 0.18 mg/dL
  GLUCOSE: 173.83 mg/dL
  LACTATE DEHYDROGENASE: 188.33 u/L
  LIPASE: 9.5 u/L
  PHOSPHORUS: 11.95 mg/dL
  POTASSIUM: 5.99 MEQ/L
  SODIUM: 144.43 MEQ/L
  TOTAL BILIRUBIN: 0.15 mg/dL
  TOTAL PROTEIN: 5.95 G/DL
  URIC ACID: 1.82 mg/dL
[2]
  ABSOLUTE BASOPHIL: 0 CELLS/uL
  ABSOLUTE EOSINOPHIL: 26.67 CELLS/uL
  ABSOLUTE LYMPHOCYTE: 7583.83 CELLS/uL
  ABSOLUTE MONOCYTE: 131.33 CELLS/uL
  ABSOLUTE SEGMENTED NEUTROPHIL: 674.83 CELLS/uL
  BASOPHIL: 0%
  EOSINOPHIL: 0.33%
  ERYTHROCYTE COUNT: 5.78 x10E6/uL
  HEMATOCRIT: 36.48%
  HEMOGLOBIN: 14.03 G/DL
  LEUKOCYTE COUNT: 8.42 x10E3/uL
  LYMPHOCYTE: 89.83%
  MEAN CORPUSCULAR HEMOGLOBIN: 24.3 pg
  MEAN CORPUSCULAR HEMOGLOBIN CONCENTRATION: 38.52 G/DL
  MEAN CORPUSCULAR VOLUME: 63.15 fL
  MONOCYTE: 1.67%
  NEUTROPHIL: 8.17%
  NUCLEATED RED BLOOD CELLS: 0 /100WBC
  PLATELET COUNT: 1186.67 x10E3/uL
  ALANINE AMINOTRANSFERASE: 50.17 u/L
  ALBUMIN: 4.07 G/DL
  ALKALINE PHOSPHATASE: 367.5 u/L
  ASPARTATE AMINOTRANSFERASE: 81.67 u/L
  BLOOD UREA NITROGEN: 16.17 mg/dL
  CARBON DIOXIDE: 32.33 mmol/L
  CHLORIDE: 101.5 MEQ/L
  CHOLESTEROL: 65.33 mg/dL
  CREATINE PHOSPHOKINASE: 255.33 u/L
  CREATININE: 0.17 mg/dL
  GLUCOSE: 139.33 mg/dL
  LACTATE DEHYDROGENASE: 95 u/L
  LIPASE: 10.5 u/L
  PHOSPHORUS: 10.38 mg/dL
  POTASSIUM: 6.11 MEQ/L
  SODIUM: 145.55 MEQ/L
  TOTAL BILIRUBIN: 0.17 mg/dL
  TOTAL PROTEIN: 5.98 G/DL
  URIC ACID: 0.93 mg/dL
[3]
  ABSOLUTE BASOPHIL: 0 CELLS/uL
  ABSOLUTE EOSINOPHIL: 0 CELLS/uL
  ABSOLUTE LYMPHOCYTE: 14318.33 CELLS/uL
  ABSOLUTE MONOCYTE: 218 CELLS/uL
  ABSOLUTE SEGMENTED NEUTROPHIL: 1497 CELLS/uL
  BASOPHIL: 0%
  EOSINOPHIL: 0%
  ERYTHROCYTE COUNT: 5.61 x10E6/uL
  HEMATOCRIT: 35.47%
  HEMOGLOBIN: 13.67 G/DL
  LEUKOCYTE COUNT: 16.03 x10E3/uL
  LYMPHOCYTE: 89.33%
  MEAN CORPUSCULAR HEMOGLOBIN: 24.37 pg
  MEAN CORPUSCULAR HEMOGLOBIN CONCENTRATION: 38.53 G/DL
  MEAN CORPUSCULAR VOLUME: 63.23 fL
  MONOCYTE: 1.33%
  NEUTROPHIL: 9.33%
  NUCLEATED RED BLOOD CELLS: 0 /100WBC
  PLATELET COUNT: 1106.33 x10E3/uL
  ALANINE AMINOTRANSFERASE: 43.67 u/L
  ALBUMIN: 3.9 G/DL
  ALKALINE PHOSPHATASE: 402 u/L
  ASPARTATE AMINOTRANSFERASE: 70.33 u/L
  BLOOD UREA NITROGEN: 14.33 mg/dL
  CARBON DIOXIDE: 25.33 mmol/L
  CHLORIDE: 102 MEQ/L
  CHOLESTEROL: 72.33 mg/dL
  CREATINE PHOSPHOKINASE: 454.67 u/L
  CREATININE: 0.15 mg/dL
  GLUCOSE: 170.33 mg/dL
  LACTATE DEHYDROGENASE: 139 u/L
  LIPASE: 9 u/L
  PHOSPHORUS: 12.8 mg/dL
  POTASSIUM: 6.03 MEQ/L
  SODIUM: 142.73 MEQ/L
  TOTAL BILIRUBIN: 0.2 mg/dL
  TOTAL PROTEIN: 5.63 G/DL
  URIC ACID: 1.97 mg/dL
